Results taken from PMC5096464 (Journal of the American Chemical Society, 2016).
Residue numbers refer to the chain shown, from its start.

Columns and labels:
N100A PafA = target: T1, N100A PafA (Elizabethkingia meningoseptica, UniProt Q9KJX5, N100A); assay: biochemical; details: pH 8.0, subsaturating me-pNPP
T1 sequence (Q9KJX5 26-546 N100A): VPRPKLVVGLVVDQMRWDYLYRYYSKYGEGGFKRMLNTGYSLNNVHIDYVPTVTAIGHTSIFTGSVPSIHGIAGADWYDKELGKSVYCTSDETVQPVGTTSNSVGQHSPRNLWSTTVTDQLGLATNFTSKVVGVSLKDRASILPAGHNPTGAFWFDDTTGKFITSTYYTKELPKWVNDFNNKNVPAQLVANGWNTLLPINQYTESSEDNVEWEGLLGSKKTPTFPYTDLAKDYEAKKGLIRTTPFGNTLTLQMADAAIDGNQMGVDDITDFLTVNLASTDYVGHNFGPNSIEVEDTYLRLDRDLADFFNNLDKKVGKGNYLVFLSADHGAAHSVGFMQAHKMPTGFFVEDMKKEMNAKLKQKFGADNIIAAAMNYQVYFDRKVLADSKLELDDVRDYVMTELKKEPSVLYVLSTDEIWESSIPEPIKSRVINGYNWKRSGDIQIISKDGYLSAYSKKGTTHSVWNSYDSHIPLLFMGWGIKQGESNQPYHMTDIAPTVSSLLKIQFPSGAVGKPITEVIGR

R164A PafA = target: T2, R164A PafA (Elizabethkingia meningoseptica, UniProt Q9KJX5, R164A); assay: biochemical; details: pH 8.0, subsaturating me-pNPP
T2 sequence (Q9KJX5 26-546 R164A): T1 sequence (Q9KJX5 26-546 N100A) with A75N, R139A

K162A PafA = target: T3, K162A PafA (Elizabethkingia meningoseptica, UniProt Q9KJX5, K162A); assay: biochemical; details: pH 8.0, subsaturating me-pNPP
T3 sequence (Q9KJX5 26-546 K162A): T1 sequence (Q9KJX5 26-546 N100A) with A75N, K137A

EcAP [1] = details: EcAP vs PafA
EcAP [2] = details: ref 39 and 57; cited from earlier work
WT PafA = target: T4, WT PafA (Elizabethkingia meningoseptica, UniProt Q9KJX5); assay: biochemical; details: pH 8.0, subsaturating me-pNPP
T4 sequence (Q9KJX5 26-546): T1 sequence (Q9KJX5 26-546 N100A) with A75N

T79S PafA = target: T5, T79S PafA (Elizabethkingia meningoseptica, UniProt Q9KJX5, T79S); assay: biochemical; details: pH 8.0, subsaturating me-pNPP
T5 sequence (Q9KJX5 26-546 T79S): T1 sequence (Q9KJX5 26-546 N100A) with T54S, A75N

Q: Which Ki (N100A PafA) does the source give for O=P(O)(O)O [Pi, inorganic phosphate] here?
A: 1300 µM

Q: What about the Ki (R164A PafA) of the same compound?
A: > 13000 µM

Q: What about the Ki (K162A PafA) of the same compound?
A: 4700 µM

Q: And the “product inhibition of EcAP stronger than that for PafA” value (EcAP [1])?
A: more than 3 orders of magnitude

Q: What about the “Ki (product inhibition)” value (EcAP [2]) of the same compound?
A: low micromolar

Q: What about the Ki (WT PafA) of the same compound?
A: 830 µM

Q: What about the Ki (T79S PafA) of the same compound?
A: 9.6 µM

Q: What does the source list for [O]=[W](=[O])([OH])[OH] [tungstate]?
A: Ki (N100A PafA): 570 µM; Ki (R164A PafA): 1300 µM; Ki (K162A PafA): > 13000 µM; Ki (WT PafA): 3.9 µM; Ki (T79S PafA): 280 µM

Q: Which results are given for [O]=[V]([OH])([OH])[OH] [vanadate]?
A: Ki (N100A PafA): 190 µM; Ki (R164A PafA): 300 µM; Ki (K162A PafA): 79 µM; Ki (WT PafA): 0.67 µM; Ki (T79S PafA): 90 µM
